Values quoted from earlier work, collected in paper PMC13427755 (Nature Communications, 2026).
Like-named read-outs stand apart in the source and are kept apart here.

Test system: SP-D
Conditions: at 12 weeks, cited from earlier work

Compound: COC(=O)c1ccc2c(c1)NC(=O)/C2=C(\Nc1ccc(N(C)C(=O)CN2CCN(C)CC2)cc1)c1ccccc1 [nintedanib]
- decrease in SP-D (INMARK study of nintedanib): 4%

Compound: Cc1ccc(=O)n(-c2ccccc2)c1 [pirfenidone]
- decrease in SP-D (CAPACITY study of pirfenidone): 5%
